Assay results reported in PMC5503601 (Oncotarget, 2017).
Several values for one entry are separate records, joined by “and”; a condition that tells them apart may be missing. Equal entries are not always repeated. Where two headings read alike, the source gives them in different places. Values belong to the molecule of their own block, whether it stands above or below them.

Tests used:
TOPK = biological target: T1, TOPK (Homo sapiens, UniProt Q96KB5); test: Microscale thermophoresis (MST) binding assay; conditions: labeled TOPK 50 nM, 25°C, means ± SD for three experiments
T1 construct: hexa-histidine; made in house; host or cells: Escherichia coli BL21 (DE)
T1 sequence (Q96KB5 1-322): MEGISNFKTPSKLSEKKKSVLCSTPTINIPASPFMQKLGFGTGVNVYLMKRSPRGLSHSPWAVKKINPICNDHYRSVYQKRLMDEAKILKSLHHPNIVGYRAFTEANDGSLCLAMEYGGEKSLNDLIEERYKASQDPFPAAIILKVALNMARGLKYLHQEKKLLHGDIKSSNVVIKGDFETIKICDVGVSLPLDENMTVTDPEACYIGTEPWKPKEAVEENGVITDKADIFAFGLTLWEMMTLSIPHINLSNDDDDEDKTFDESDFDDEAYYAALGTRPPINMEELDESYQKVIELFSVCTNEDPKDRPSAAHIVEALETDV
Description: To validate results of the virtual ligand screening, we employed microscale therm ophoresis method (MST) to assay the binding affinity between compounds and TOPK. This technology detected fluorescent changes of molecules during thermophoresis, to quantify protein-protein interactions or protein-small molecule interactions with high sensitivity and low sample cost.
Human TOPK gene (Accssion number: NM_018492) was cloned into the pET26b vector (Novagen). The expression construct pET26b-TOPK was transformed into Escherichia coli strain BL21 (DE) (Invitrogen) and selected on kanamycin plates. The transformed cells were cultivated in Luria-Bertani (LB) media at 37°C in the presence of kanamycin until the optical density (OD) reached 0.8. Cells were then induced with 0.4 mM IPTG (isopropyl-β-D-1-thiogalactopyranoside) for 16 h at 20°C. The cells harvested by centrifugation were lysed by ultrasonication on ice in a buffer containing 20 mM Tris, pH 8.5, 200 mM NaCl, 5 mM mercaptoethanol, 0.1% TritonX-100, and 5% glycerol.
Soluble hexa-histidine tagged TOPK was bound to Ni-agarose affinity resin (Qiagen), washed with buffer A (20 mM Tris, pH 8.5, 200mM NaCl, and 10 mM imidazole), and eluted with buffer B (20 mM Tris, pH 8.8, 250 mM NaCl, and 150 mM imidazole).
Recombinant TOPK was labeled with the Monolith NT™ Protein Labeling Kit RED (Cat # L001) according to the supplied labeling protocol. Labeled TOPK was used in a concentration of 50 nM. The samples were diluted in a 20 mM HEPES (pH 7.4) and 0.5 (v/v) % Tween-20. The prazoles stocks were dissolved in 10% DMSO in a concentration of 1 mM. 1mM prazoles were used as the highest concentration for serial dilutions. After 10minutes incubation at room temperature, the samples were loaded into Monolith^TM standard-treated capillaries and the thermophoresis was measured at 25°C after 30 minutes incubation on a Monolith NT.115 instrument (NanoTemper Technologies, München, Germany). Laser power was set to 20% using 30 seconds on-time. The LED power was set to 100%. The dissociation constant Kd values were fitted by using the NTAnalysis software (NanoTemper Technologies, München, Germany).

HCT116 cells [1] = test: Cell viability (cck8) assay, HCT116; assay type: cell-based; conditions: Homo sapiens, HCT-116, read-out: IC50 for HCT116 cell activities
Experimental: (§1) To estimate cell viability, human colon cancer HCT 116, ES-2, A549 and SW1990 cells (5000 cells/well) were seeded in 96-well plates for 24 h at 37°C in a 5% CO2 incubator. […] All experiments were performed in triplicate, and the mean absorbance values were calculated.

ES-2 cells [2] = test: Cell viability (cck8) assay, ES-2; assay type: cell-based; conditions: Homo sapiens, read-out: IC50, growth of ES-2 cells
Experimental: as §1

[3] = system: A549, HCT116, ES-2 and SW1990 cells; test: Cell viability (cck8) assay, 4 TOPK-positive cancer cell lines; assay type: cell-based; conditions: Homo sapiens; range over A549, HCT116, ES-2, SW1990; read-out: IC50 values, growth inhibition across the cell lines
Experimental: TOPK protein levels were measured by western blot in cancer cell lines derived from various cancer types, such as lung cancer (A549), colon cancer (HCT116), human ovarian cancer (ES-2) and pancreatic cancer cell (SW1990).
as §1

HCT116 cells [4] = test: Apoptosis by flow cytometry (Annexin V/propidium iodide), HCT116; assay type: cell-based, human; conditions: HCT116, 50 μM, 24 h; control 2%
Experimental: (§2) Cells were pre-treated with different concentrations of ilaprzole for 24 h, and then the cellular apoptosis was measured by using flow cytometry. […] Apoptotic cells were assessed by staining PBS washed cells with phycoerythrin (PE)-conjugated annexin-V (BD Pharmingen) for 10-15 minutes in incubation buffer (Annexin-V-FLUOS Staining Kit, Roche). Fluorescence was recorded by flow cytometry using the FACS Aria (BD Bio sciences).

ES-2 cells [5] = test: Apoptosis by flow cytometry (Annexin V/propidium iodide), ES-2; assay type: cell-based, human; conditions: ES-2, 50 μM, 24 h; control 2%
Experimental: as §2

[6] = system: TOPK activity (phosphorylation of histone H3 Ser10) in HCT116 cells; test: Western blot of phosphorylated histone H3 (Ser10), HCT116; assay type: cell-based, human
Experimental: (§3) TOPK proteins were expressed mainly around chromosomal surfaces in mitotic cells, particularly at prophase and metaphase, so the histone was chosen as the substrate for TOPK activity evaluation. Some reports confirmed that TOPK could phosphorylate histone H3 in vitro and in vivo. […] (Figure 3a, 3b, Supplementary Figure 1a, 1b)
(§4) Histones were extracted from cells by disrupting the cells with NETN buffer [150 mM NaCl, 1 mM EDTA, 20 mM Tris-HCl (pH 8.0), 0.5% nonionic detergent IGEPAL CA 630(NP-40), Sigma]. The insoluble fraction was pelleted for 5 minutes in a microcentrifuge (8,400 rpm). Nuclei were extracted with 0.1 M HCl to isolate the total histones. The samples were precipitated with 1 M Tris- HCl (pH 8.0) and then resuspended in ddH2O.
(§5) The harvested cells were lysed with lysis buffer (50 mM Tris-HCl (pH 7.4), 150 mM NaCl, 1 mM EDTA, 1 mM EGTA, […], 5 mM phenylmethanesulfonyluoride (PMSF), 1 mM dithiolthreitol (DTT) containing 1% Triton X-100). Insoluble debris was removed by centrifugation at 12000 rpm for 15 minutes, and protein's content was determined using Bradford reagent (Bio-Rad, USA). Lysate protein (20-40 μg) was subjected to 10% SDS-PAGE and electrophoretically transferred to polyvinylidene difluoride membranes (PVDF) (Millipore, USA). […] Band density was quantified using the Image J software program (NIH).

[7] = system: TOPK activity (phosphorylation of histone H3 Ser10) in ES-2 cells; test: Western blot of phosphorylated histone H3 (Ser10), ES-2; assay type: cell-based, human
Experimental: as §3, §4, §5

HCT116 cells [8] = test: Cell cycle distribution by flow cytometry, HCT116; assay type: cell-based, human; conditions: HCT116, increasing doses, 48 hours
[9] = system: shTOPK and shMock infected cancer cells; test: Growth of shMock versus shTOPK infected cells (CCK8); assay type: cell-based, human; conditions: 48 hours
Description: To investigate the growth-promoting role of TOPK in cancer cells, the expression of endogenous TOPK was knocked down in four cancer cells. By lentiviral infection, HCT116, ES-2, A549 and SW1990 cell lines stably expressing low levels of TOPK (shTOPK) were established. As the control, cells were infected with shMock. The abundance of TOPK in these cells was confirmed by western blot analysis (Figure 2a).
The effect of ilaprazolewas examined in shMock and knockdown cell lines with shTOPK. Cells were incubated for 48 hours and growth was determined by cck8 assay.
“The target sequences of oligo siRNAs were as follows: 5′-[…] -3′ for TOPK to produce lentiviral particles.”
The transfection medium was changed at 4 hours after transfection and then cells were cultured for 36 hours. The viral particles were harvested by filtration using a […] syringe filter, then combined with […] of polybrene (Millipore) and infected into 60% confluent HCT-116 cells overnight. The cell culture medium was replaced with fresh complete growth medium for 24 hours and then cells were selected with puromycin ([…]) for 36 hours. The selected cells were used for experiments.

HCT116 xenograft = HCT116 xenograft mouse model, tumor growth; assay type: in vivo, CB-17/Icr-scid mice; conditions: for tumor weight: control 1.45 ± 0.33 g
Experimental: (§6) Estimated tumor volumes of both treating groups were less than that of the control group throughout the treatment. […] Animals were then scarified and the average tumor weights were measured and calculated. The tumor weight of the control group was 1.45 ± 0.33 g, whereas the tumor weights of low-dose and high-dose treated groups were 0.67 ± 0.21g and 0.52 ± 0.11g, respectively (Figure 5c), representing significant reduction.
(§7) CB-17/Icr-scid mice were purchased from Beijing HFK Bioscience CO., LTD (Beijing, China). The animals were maintained under ‘specific pathogen free’ conditions. The mice were randomly divided into three groups: (i) vehicle group (n = 8); (ii) 150 mg/kg ilaprazole-treated group (n = 8); (III) 75 mg/kg ilaprazole-treated group. HCT 116 cells were inoculated subcutaneously (2 × 10^6 cells) into the left flank of each mouse in all groups. Treatment was started after 4 days of cell injection. The duration of the animal study was 19 days. The tumor volume was calculated from measurements of 3 diameters of the individual tumor based on the following formula:
tumor volume (mm^3) = (length × width × height × 0.52). The mice were monitored until tumors reached 1 cm^3 total volume, at which the mice were euthanized and the tumors were extracted. The tumors were dissected and sent for immune-histochemical analysis.

[10] = HCT116 xenograft mouse model, toxicity and body weight; assay type: in vivo, CB-17/Icr-scid mice
Experimental: as §6
as §7, with “formula: […]” for “formula:”

[11] = set-up: method as in SciFinder Academic database; conditions: ref SciFinder Academic database; cited from earlier work
[12] = rat, in vivo; cited from earlier work

Kd (TOPK): n.b^c | IC50 (HCT116 cells [1]): > 500 µM
SMILES: CCSc1ccnc(C[S+]([O-])c2nc3ccccc3[nH]2)c1C (centres unmarked) [Disuprazole, disuprazole]

Kd (TOPK; read-out: Kd): 241 µM and 242 µM | IC50 (HCT116 cells [1]): 103 ± 4.1 µM
SMILES: Cc1c(OCC(F)(F)F)ccnc1C[S+]([O-])c1nc2ccccc2[nH]1 (centres unmarked) [Lansoprazole, lansoprazole]

Kd (TOPK; read-out: Kd): 24 µM and 24.2 µM | IC50 (HCT116 cells [1]): 153 ± 8.5 µM
SMILES: COc1ccnc(C[S+]([O-])c2nc3ccc(OC(F)F)cc3[nH]2)c1OC (centres unmarked) [Pantoprazole, pantoprazole]
logP value [11]: 1.571 ± 1.065

Kd (TOPK; read-out: Kd): 324 µM | IC50 (HCT116 cells [1]): > 500 µM
SMILES: COCCCOc1ccnc(C[S+]([O-])c2nc3ccccc3[nH]2)c1C (centres unmarked) [Rabeprazole, rabeprazole]

More lines, now with the values behind:

SMILES: COc1ccc2nc([S@@+]([O-])Cc3ncc(C)c(OC)c3C)[nH]c2c1 [Esomeprazole, esomeprazole]
Kd (TOPK): n.b^c | IC50 (HCT116 cells [1]): > 500 µM

SMILES: COc1ccnc(C[S+]([O-])c2nc3cc(-n4cccc4)ccc3[nH]2)c1C (centres unmarked) [Ilaprazole, ilaprazole]
Kd (TOPK; read-out: Kd): 111 ± 2.3 µM | IC50 (HCT116 cells [1]): 40 ± 0.6 µM | IC50 (ES-2 cells [2]): 33.2 ± 1 µM | IC50 [3]: 30.1 to 148 µM | apoptotic death (HCT116 cells [4]): 32.03% | apoptotic death (ES-2 cells [5]): 7.62% | phosphorylation of histone H3 (Ser10) [6]: substantially attenuated in a dose-dependent manner | phosphorylation of histone H3 (Ser10) [7]: substantially attenuated in a dose-dependent manner | cell cycle distribution (HCT116 cells [8]): cell cycle arrested at the G1 phase | growth inhibition of shTOPK cells compared with shMock cells [9]: resistant to the inhibitory effect | tumor weight (HCT116 xenograft; 75 mg/kg daily via gavage (low-dose)): 0.67 ± 0.21 g | tumor weight (HCT116 xenograft; 150 mg/kg daily via gavage (high-dose)): 0.52 ± 0.11 g | tumor volume (HCT116 xenograft; 75 and 150 mg/kg daily via gavage, after 2 weeks' treatment): Significant decreases | phosphorylated histone H3 in tumor tissues (immunohistochemistry) (HCT116 xenograft; ilaprazole-treated groups versus vehicle group): substantially decreased | microstructures of sections of the liver, kidney and spleen ([10]; mice treated daily for 15 days): No significant damage | hepatotoxicity and nephrotoxicity ([10]; mice, 75 and 150 mg/kg oral): no obvious hepatotoxicity and nephrotoxicity | mouse body weight ([10]; mice, 75 and 150 mg/kg via gavage): no effect | logP value [11]: 2.882 ± 1.045 | LD50 [12]: more than 5000 mg/kg

SMILES: COc1ccc2[nH]c([S+]([O-])Cc3ncc(C)c(OC)c3C)nc2c1 (centres unmarked) [Omeprazole, omeprazole]
Kd (TOPK; read-out: Kd): 174 µM | IC50 (HCT116 cells [1]): 348 ± 7.3 µM
